Source: patent publication EP0552142B2, “T CELL RECEPTOR PEPTIDES AS THERAPEUTICS FOR AUTOIMMUNE AND MALIGNANT DISEASE” (priority 1989, dated 1991)
Ends that are not written are not given here.

Test system: EAE
Set-up: species or system New Zealand white rabbits
Conditions: rabbit, in vivo
Experimental: The emulsion was injected SC in multiple sites in the dorsal area of the neck and the tail. Rabbits were immunized either with the free peptide or with peptide conjugated to KLH. […] All rabbits were bled via the ear vein after they were placed in restraining cages and tranquilized with ace-promozine. To prevent hypovolemia, the amount of blood removed was replaced with sterile saline. Sera from individual rats or rabbits were prepared from clotted blood by centrifugation. All sera were decomplemented for 30 minutes at 56°C and frozen in small aliquots to which sodium azide was added.

Clinical Signs of EAE: None
Sequence: DMGHGLRLIHYSYDVNSTEKG [TCR Vβ8(39-59)]
